Data: patent US9486506B2 (Novo Nordisk A/S, priority 2011, dated 2016)
Read-outs that look alike come from different tables or passages of the source. Numbered stars: 1 amine (or outer) side, 2 acyl side, 3 side chain; on linkers, the order of the positions; unused ones are H or OH. Side chains are listed from the residue outwards. Peptide text beside a SMILES is read from it. * marks the point of attachment. C18 diacid = O=C(O)CCCCCCCCCCCCCCCCC(=O)*; C16 diacid = O=C(O)CCCCCCCCCCCCCCC(=O)*; γGlu = O=C(O)[C@H](CCC(=O)[*:2])N[*:1]; C14 diacid = O=C(O)CCCCCCCCCCCCC(=O)*; AEEA = NCCOCCOCC(=O)O

Key:
[1] = Assay (X) Chemical stability assessment by RP-UPLC; assay type: physicochemical; conditions: pH 8.15, 14 days at 37° C. vs 5° C., 333 μM
[2] = Assay (XI) Pharmacokinetic study in minipigs; assay type: in vivo, Göttingen minipigs; conditions: minipig, iv, i.v. administration, terminal half-life, read-out: iv PK minipig [T½] (converted)
Experimental: Buffer: • 50 mM Dinatriumphosphatdihydrat • 184 mM Propylenglycol • 58 mM Phenol • pH adjusted to 8.15 with H3PO4. In cases where pH was adjusted to 8.15 after re-suspension of analogues, 0.2 M NaOH was used. Assay (XI) Pharmacokinetic Study in Minipigs
This is done in a pharmacokinetic (PK) study, whereamong other parameters the terminal half-life and the clearance of the derivative in question is determined. Increasing the terminal half-life and decreasing the clearance means that the compound of study is eliminated slower from the body.
Male or female Göttingen minipigs were obtained from Ellegaard Göttingen Minipigs (Dalmose, Denmark) approximately 7-14 months of age and weighing from approximately 16-35 kg were used in the studies. The minipigs were housed either individually (pigs with permanent catheters) or in a group and fed restrictedly once or twice daily with SDS minipig diet (Special Diets Services, Essex, UK). In some studies two permanent central venous catheters were implanted in vena cava caudalis or cranialis in each animal after at least 2 weeks of acclimatisation. […] On each dosing occasion these pigs were instrumented with a venflon in one ear vein through which the derivatives were dosed. Blood sampling was done by venipuncture in v. jugularis or v. cava cranialis
The animals were either unfasted or fasted for approximately 18 h before dosing and from 0 to 4 h after dosing, but had ad libitum access to water during the whole period.
Intravenous injections (the volume corresponding to usually 2-3 nmol/kg, for example 0.1 ml/kg) of the compounds were given through one catheter or through the venflon, and blood was sampled at predefined time points for up till 13 days post dosing (preferably through the other catheter or by venipuncture). Blood samples (for example 0.8 ml) were collected in tubes with EDTA buffer (8 mM) (sometimes aprotinin 500 KIU/ml blood was added) and then centrifuged at 4° C. and 1942 G for 10 minutes. […] Based on these measurements, time-plasma concentration profiles for the compound of study are plotted and a so-called non-compartmental pharmacokinetic analysis of the data is performed in WinNonlin v. 5.0 or Phoenix v. 6.2 (Pharsight Inc., Mountain View, Calif., USA) or other relevant software for PK analysis. For most compounds, the terminal part of the plasma-concentration profiles will be linear when drawn in a semi-logarithmic plot, reflecting that after the initial distribution, drug is removed from the body at a constant fractional rate. The rate (lambda Z or is equal to minus the slope of the terminal part of the plot. From this rate, also the terminal half-life may be calculated, as t½=ln(2)/λz (see, e.g., Johan Gabrielsson and Daniel Weiner: Pharmacokinetics and Pharmacodynamic Data Analysis. Concepts & Applications, 3rd Ed., Swedish Pharmaceutical Press, Stockholm (2000)).
Clearance is defined as the dose (D) divided by area under the curve (AUC) on the plasmaconcentration versus time profile (Rowland, M and Tozer T N: Clinical Pharmacokinetics: Concepts and Applications, 3rd edition, 1995 Williams Wilkins)

[3] = target: T1, glucagon receptor (Homo sapiens, UniProt P47871); test: Assay (I) Glucagon activity (cAMP biosensor, FLIPR); assay type: cell-based
T1 construct: expressed in transfected cells
T1 sequence (P47871 26-477): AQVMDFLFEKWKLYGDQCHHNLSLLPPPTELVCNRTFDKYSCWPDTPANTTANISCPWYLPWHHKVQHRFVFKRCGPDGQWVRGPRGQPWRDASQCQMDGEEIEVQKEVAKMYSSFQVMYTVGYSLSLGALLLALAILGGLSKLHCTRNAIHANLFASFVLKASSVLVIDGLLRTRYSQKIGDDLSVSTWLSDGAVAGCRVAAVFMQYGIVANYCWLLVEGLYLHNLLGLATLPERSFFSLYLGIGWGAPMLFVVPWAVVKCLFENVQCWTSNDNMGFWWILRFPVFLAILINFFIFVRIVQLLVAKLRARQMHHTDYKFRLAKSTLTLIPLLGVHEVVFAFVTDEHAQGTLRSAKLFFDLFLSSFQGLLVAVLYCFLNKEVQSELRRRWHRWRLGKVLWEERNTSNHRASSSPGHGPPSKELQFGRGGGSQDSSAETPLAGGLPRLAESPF

| SMILES | Chemical stability [Purity loss/14 days 37 C.] [1] [%] | half-life ([2]; in vivo) [h] | EC50 [3] [nM] | half-life ([2]; both sexes, Göttingen, plasma) [h] |
| --- | --- | --- | --- | --- |
| CC(C)C[C@H](NC(=O)[C@H](CC(=O)O)NC(=O)[C@H](CC(C)C)NC(=O)[C@H](Cc1ccc(O)cc1)NC(=O)[C@H](CCCCN)NC(=O)[C@H](CO)NC(=O)[C@H](Cc1ccc(O)cc1)NC(=O)[C@H](CC(=O)O)NC(=O)[C@H](CO)NC(=O)[C@@H](NC(=O)[C@H](Cc1ccccc1)NC(=O)[C@@H](NC(=O)CNC(=O)[C@H](CCC(N)=O)NC(=O)[C@H](CO)NC(=O)[C@@H](N)Cc1c[nH]cn1)[C@@H](C)O)[C@@H](C)O)C(=O)N[C@@H](CCCNC(=N)N)C(=O)N[C@@H](CCCNC(=N)N)C(=O)N[C@@H](C)C(=O)N[C@@H](CCC(N)=O)C(=O)N[C@@H](CC(=O)O)C(=O)N[C@@H](Cc1ccccc1)C(=O)N[C@H](C(=O)N[C@@H](CCCCNC(=O)CC[C@H](NC(=O)CC[C@H](NC(=O)COCCOCCNC(=O)COCCOCCNC(=O)CC[C@H](NC(=O)CCCCCCCCCCCCCCCCC(=O)O)C(=O)O)C(=O)O)C(=O)O)C(=O)N[C@@H](Cc1c[nH]c2ccccc12)C(=O)N[C@@H](CC(C)C)C(=O)N[C@@H](CC(C)C)C(=O)N[C@@H](CO)C(=O)N[C@H](C(=O)O)[C@@H](C)O)C(C)C [Example 13, N^ε24-[(4S)-4-carboxy-4-[[(4S)-4-carboxy-4-[[2-[2-[2-[[2-[2-[2-[[(4S)-4-carboxy-4-(17-carboxyheptadecanoylamino)butanoyl]amino]ethoxy]ethoxy]acetyl]amino]ethoxy]ethoxy]acetyl]amino]butanoyl]amino]butanoyl]-[Leu^16,Lys^24,Leu^27,Ser^25]-Glucagon] (H-HSQGTFTSDYSKYLDLRRAQDFVK([γGlu-γGlu-AEEA-AEEA-γGlu-C18 diacid])WLLST-OH; N-terminus and C-terminus assumed) | 5.1 | 76.4 |  |  |
| CC(C)C[C@H](NC(=O)[C@H](Cc1ccc(O)cc1)NC(=O)[C@H](CCCNC(=N)N)NC(=O)[C@H](CO)NC(=O)[C@H](Cc1ccc(O)cc1)NC(=O)[C@H](CC(=O)O)NC(=O)[C@H](CO)NC(=O)[C@@H](NC(=O)[C@H](Cc1ccccc1)NC(=O)[C@@H](NC(=O)CNC(=O)[C@H](CCC(N)=O)NC(=O)[C@H](CO)NC(=O)[C@@H](N)Cc1c[nH]cn1)[C@@H](C)O)[C@@H](C)O)C(=O)N[C@@H](CC(=O)O)C(=O)N[C@@H](C)C(=O)N[C@@H](CCCNC(=N)N)C(=O)N[C@@H](CCCNC(=N)N)C(=O)N[C@@H](C)C(=O)N[C@@H](CCC(N)=O)C(=O)N[C@@H](CC(=O)O)C(=O)N[C@@H](Cc1ccccc1)C(=O)N[C@H](C(=O)N[C@@H](CCCCNC(=O)CC[C@H](NC(=O)CC[C@H](NC(=O)COCCOCCNC(=O)COCCOCCNC(=O)CC[C@H](NC(=O)CCCCCCCCCCCCCCCCC(=O)O)C(=O)O)C(=O)O)C(=O)O)C(=O)N[C@@H](Cc1c[nH]c2ccccc12)C(=O)N[C@@H](CC(C)C)C(=O)N[C@@H](CC(C)C)C(=O)N[C@@H](CO)C(=O)N[C@H](C(=O)O)[C@@H](C)O)C(C)C [Example 16, N^ε24-[(4S)-4-carboxy-4-[[(4S)-4-carboxy-4-[[2-[2-[2-[[2-[2-[2-[[(4S)-4-carboxy-4-(17-carboxyheptadecanoylamino)butanoyl]amino]ethoxy]ethoxy]acetyl]amino]ethoxy]ethoxy]acetyl]amino]butanoyl]amino]butanoyl]-[Arg^12,Ala^16,Lys^24,Leu^27,Ser^28]-Glucagon] (H-HSQGTFTSDYSRYLDARRAQDFVK([γGlu-γGlu-AEEA-AEEA-γGlu-C18 diacid])WLLST-OH) |  |  | 0.158 | 86.6 |
| CC(C)C[C@H](NC(=O)[C@H](CC(=O)O)NC(=O)[C@H](CC(C)C)NC(=O)[C@H](Cc1ccc(O)cc1)NC(=O)[C@H](CCCNC(=N)N)NC(=O)[C@H](CO)NC(=O)[C@H](Cc1ccc(O)cc1)NC(=O)[C@H](CC(=O)O)NC(=O)[C@H](CO)NC(=O)[C@@H](NC(=O)[C@H](Cc1ccccc1)NC(=O)[C@@H](NC(=O)CNC(=O)[C@H](CCC(N)=O)NC(=O)[C@H](CO)NC(=O)[C@@H](N)Cc1c[nH]cn1)[C@@H](C)O)[C@@H](C)O)C(=O)N[C@@H](CCCNC(=N)N)C(=O)N[C@@H](CCCNC(=N)N)C(=O)N[C@@H](C)C(=O)N[C@@H](CCC(N)=O)C(=O)N[C@@H](CC(=O)O)C(=O)N[C@@H](Cc1ccccc1)C(=O)N[C@H](C(=O)N[C@@H](CCCCNC(=O)CC[C@H](NC(=O)CC[C@H](NC(=O)COCCOCCNC(=O)COCCOCCNC(=O)CC[C@H](NC(=O)CCCCCCCCCCCCC(=O)O)C(=O)O)C(=O)O)C(=O)O)C(=O)N[C@@H](Cc1c[nH]c2ccccc12)C(=O)N[C@@H](CC(C)C)C(=O)N[C@@H](CC(C)C)C(=O)N[C@@H](CO)C(=O)N[C@H](C(=O)O)[C@@H](C)O)C(C)C [Example 24, N^ε24-[(4S)-4-carboxy-4-[[(4S)-4-carboxy-4-[[2-[2-[2-[[2-[2-[2-[[(4S)-4-carboxy-4-(13-carboxytridecanoylamino)butanoyl]amino]ethoxy]ethoxy]acetyl]amino]ethoxy]ethoxy]acetyl]amino]butanoyl]amino]butanoyl]-[Arg^12,Leu^16,Lys^24,Leu^27,Ser^28]-Glucagon] (H-HSQGTFTSDYSRYLDLRRAQDFVK([γGlu-γGlu-AEEA-AEEA-γGlu-C14 diacid])WLLST-OH) |  |  | 0.006 | 4.1 |
| CC(C)C[C@H](NC(=O)[C@H](CC(=O)O)NC(=O)[C@H](CC(C)C)NC(=O)[C@H](Cc1ccc(O)cc1)NC(=O)[C@H](CCCNC(=N)N)NC(=O)[C@H](CO)NC(=O)[C@H](Cc1ccc(O)cc1)NC(=O)[C@H](CC(=O)O)NC(=O)[C@H](CO)NC(=O)[C@@H](NC(=O)[C@H](Cc1ccccc1)NC(=O)[C@@H](NC(=O)CNC(=O)[C@H](CCC(N)=O)NC(=O)[C@H](CO)NC(=O)[C@@H](N)Cc1c[nH]cn1)[C@@H](C)O)[C@@H](C)O)C(=O)N[C@@H](CCCNC(=N)N)C(=O)N[C@@H](CCCNC(=N)N)C(=O)N[C@@H](C)C(=O)N[C@@H](CCC(N)=O)C(=O)N[C@@H](CC(=O)O)C(=O)N[C@@H](Cc1ccccc1)C(=O)N[C@H](C(=O)N[C@@H](CCCCNC(=O)CC[C@H](NC(=O)CC[C@H](NC(=O)COCCOCCNC(=O)COCCOCCNC(=O)CC[C@H](NC(=O)CCCCCCCCCCCCCCC(=O)O)C(=O)O)C(=O)O)C(=O)O)C(=O)N[C@@H](Cc1c[nH]c2ccccc12)C(=O)N[C@@H](CC(C)C)C(=O)N[C@@H](CC(C)C)C(=O)N[C@@H](CO)C(=O)N[C@H](C(=O)O)[C@@H](C)O)C(C)C [Example 25, N^ε24-[(4S)-4-carboxy-4-[[(4S)-4-carboxy-4-[[2-[2-[2-[[2-[2-[2-[[(4S)-4-carboxy-4-(15-carboxypentadecanoylamino)butanoyl]amino]ethoxy]ethoxy]acetyl]amino]ethoxy]ethoxy]acetyl]amino]butanoyl]amino]butanoyl]-[Arg^12,Leu^16,Lys^24,Leu^27,Ser^28]-Glucagon] (H-HSQGTFTSDYSRYLDLRRAQDFVK([γGlu-γGlu-AEEA-AEEA-γGlu-C16 diacid])WLLST-OH) |  |  | 0.067 | 59.6 |
